Active and inactive are the calls of the source. The rule behind the calls is not given here.
Key:
[1] = Stability in human liver microsomes assessed as metabolic turnover at 2.5 mM preincubated for 5 mins followed by phase 1 cofactor NADPH addition measured for 60 mins by HPLC analysis; type: ADME, Microsome; settings: read-out: Drug metabolism
[2] = Stability in human liver microsomes at 2.5 mM measured up to 60 mins in absence of phase 1 cofactor NADPH by HPLC analysis; type: ADME, Microsome; settings: 1 h, 2500 µM
[3] = Stability in human liver microsomes at 2.5 mM measured up to 60 mins in absence of phase 2 cofactor UDP-GlcUA/NADPH by HPLC analysis; type: ADME, Microsome; settings: 1 h, 2500 µM
Rattus norvegicus [4] = experiment: Inhibition of icilin-induced wet-dog shake in Wistar rat model at 10 mg/kg, ip treated 2 hrs prior to icilin challenge measured for 30 mins; type: functional, organism-based
Rattus norvegicus [5] = experiment: Inhibition of icilin-induced wet-dog shake in Wistar rat model at 10 mg/kg, ip treated 30 mins prior to icilin challenge measured for 30 mins; type: functional, organism-based

Row | metabolised at 1 h [1] [%] | Stability [2] | Stability [3] | Structure (SMILES) | inhibition (Rattus norvegicus [4]) | inhibition (Rattus norvegicus [5])
1 | 1.1 to 72 |  |  | COC(=O)CC[C@H]1N[C@H](C(=O)NCc2ccc(F)cc2)Cc2c1[nH]c1ccccc21 |  | 
2 | 1.1 to 72 | Stable | Stable | O=C1N[C@H](Cc2ccccc2)C(=O)N2Cc3[nH]c4ccccc4c3C[C@@H]12 |  | 
3 | 26.5 | Stable | Stable | O=C1[C@@H]2Cc3c([nH]c4ccccc34)[C@@H](c3ccc(Cl)cc3)N2C(=O)N1Cc1ccc(F)cc1 |  | 
4 |  | Stable | Stable | COC(=O)C(Cc1c[nH]c2ccccc12)N(Cc1ccccc1)Cc1ccccc1 (centres undefined) | inactive | Active
5 | 1.1 to 72 | Stable | Stable | COC(=O)[C@@H]1Cc2c([nH]c3ccccc23)[C@@H](c2ccccc2)N1Cc1ccccc1 |  | 

Reference: ChEMBL document CHEMBL4622981, “Exploration of TRPM8 Binding Sites by β-Carboline-Based Antagonists and Their In Vitro Characterization and In Vivo Analgesic Activities” (J Med Chem, 2020)
